Data on two compounds can be found in article PMC9103789 (International Journal of Molecular Sciences, 2022).

Values joined by “and” are separate entries in the source; they are usually repeats but may differ in a detail not shown here. Equal values may be shown once.

Series [1] in a line: Intrinsic clearance in human liver microsomes (in-house data). The series is classed as in vitro ADME. The note with it: read-out: CLint,HLM. From the text:
All physicochemical and in vitro pharmacokinetic parameters were obtained from the literature or predicted by Simcyp® Simulator (version 16, Certara, Sheffield, U.K.). The intrinsic clearance value of pooled HLMs and human tacrolimus PBPK model was retrieved from our previous publication. The models for CYP3A5 expressers/non-expressers were built by modifying our established model with intrinsic clearance values of each CYP isoform. With the inhibitory parameters acquired from our experiments, a DDI module was incorporated into the PBPK model of tacrolimus.

In series [2] the test system is CYP3A. Nature of the series: IC50 shift assay in pooled HLMs (testosterone 6β-hydroxylation). The series is classed as in vitro ADME. The settings on record: human, pooled human liver microsomes, pH 7.4, probe testosterone (200 μM); for IC50 at 30 min / IC50: pooled HLMs; for IC50 at 30 min: 30 min preincubation with NADPH; for IC50: no preincubation. The protocol: Pooled HLMs were used in this assay to determine the IC50 shift and identify time-dependent inhibition. The experiment was divided into two groups, depending on preincubation status. […] In all samples, the final concentrations of organic solvents were not more than 1% (V/V). Schizandrol (A or B) was pre-incubated with the pooled HLMs and testosterone for 3 min at […]. In the groups without 30-minute preincubation, the reaction was started upon the addition of NADPH and terminated by 200 μL of ice-cooled methanol containing 0.315 μM of prednisolone (internal standard). […] Next, testosterone was added to initiate the reaction. The reaction was terminated with the same method. All experiments were carried out in triplicates.
The formation of 6β-hydroxytestosterone in a control group was used as a surrogate marker for remaining enzymes’ activity. […] IC50 shift value was determined by Equation (2). […] (2) IC50 shift=IC50 without NADPH preincubation/IC50 with NADPH preincubation
Background: Liver microsomes are vesicles of endoplasmic reticulum, rich in cytochrome P450 enzymes.

Series [3] addresses CYP3A. Nature of the series: Time-dependent inhibition (TDI) assay in pooled HLMs. The series is classed as in vitro ADME, human. The settings on record: for kinact: human, pooled human liver microsomes, probe testosterone (200 μM), 6β-hydroxytestosterone formation. How it is done:
(§1) A two-step protocol was followed to perform the general TDI assay. […] The reaction was initiated upon addition of NADPH (1 mM). At the designated time points (0, 5, 10, 20, or 30 min), an aliquot (20 μL) of the incubation mixture was transferred to a 180-microliter pre-warmed solution containing PBS (0.1 M), testosterone (200 μM) and NADPH (1 mM) for another 10-minute incubation. […] For the CYP3A5 experiment, CYP3cide and CYP3A5 * 1/*3 HLMs were pre-warmed for 3 min before the reaction initiation. […] All experiments were carried out in triplicates.
(§2) [I] stands for the inhibitor concentration. A high ratio of kinact over KI indicates great inhibitory potency. (3) kobs=kinact×[I]/KI+[I]

For series [4], the target named is T1, CYP3A4 (Homo sapiens, UniProt P08684).
T1 construct: replacing pooled HLMs with CYP3A5 * 3/*3 HLMs; tissue Transheep Co., Ltd. (Shanghai, China) lot: 0710253; host or cells: human liver microsomes, CYP3A5 *3/*3 genotype
T1 sequence (P08684 whole entry): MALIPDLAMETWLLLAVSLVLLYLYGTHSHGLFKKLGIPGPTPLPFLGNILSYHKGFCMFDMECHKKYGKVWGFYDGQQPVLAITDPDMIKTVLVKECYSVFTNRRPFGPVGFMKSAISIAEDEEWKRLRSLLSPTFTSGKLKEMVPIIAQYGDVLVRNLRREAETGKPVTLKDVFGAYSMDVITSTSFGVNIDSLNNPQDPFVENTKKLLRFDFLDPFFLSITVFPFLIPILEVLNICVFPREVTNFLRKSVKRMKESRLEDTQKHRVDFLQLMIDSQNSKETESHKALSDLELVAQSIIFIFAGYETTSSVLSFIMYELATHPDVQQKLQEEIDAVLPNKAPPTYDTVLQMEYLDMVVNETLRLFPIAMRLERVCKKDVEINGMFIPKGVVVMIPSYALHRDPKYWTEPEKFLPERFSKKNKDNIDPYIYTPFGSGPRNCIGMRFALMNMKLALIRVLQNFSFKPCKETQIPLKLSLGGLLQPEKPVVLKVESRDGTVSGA
Put plainly: Time-dependent inhibition (TDI) assay in CYP3A5 *3/*3 HLMs. The series is classed as in vitro ADME. The note with it: for KI / kinact/KI: CYP3A4, genotyped HLMs; for kinact: human, CYP3A5 *3/*3 genotyped human liver microsomes, probe testosterone (200 μM), 6β-hydroxytestosterone formation. The protocol:
as §1, §2

On the set-up of series [5]: method as in PMID 25392942. The note with it: after oral administration of WZC, healthy Chinese, plasma; cited from earlier work.
Series [6] concerns CYP3A (pooled HLMs). Put plainly: Reversible inhibition (RI) assay, tacrolimus metabolism in pooled HLMs. The series is classed as in vitro ADME, human. The note with it: Dixon plot. How it is done:
(§3) The reactions started upon the addition of NADPH and were terminated after 10 min by adding 200 μL of ice-cooled acetonitrile containing 0.1 μM of ascomycin (internal standard). […] The reaction was also terminated with ice-cooled acetonitrile. All experiments were carried out in triplicates. […] The intersection of lines was used to calculate the Ki value.

The target of series [7] is T2, CYP3A5 (Homo sapiens, UniProt P20815).
T2 construct: For the CYP3A5 experiment, CYP3cide and CYP3A5 * 1/*3 HLMs were pre-warmed; tissue Transheep Co., Ltd. (Shanghai, China) lot: 0710232; host or cells: human liver microsomes, CYP3A5 *1/*3 genotype, treated with CYP3cide
T2 sequence (P20815 whole entry): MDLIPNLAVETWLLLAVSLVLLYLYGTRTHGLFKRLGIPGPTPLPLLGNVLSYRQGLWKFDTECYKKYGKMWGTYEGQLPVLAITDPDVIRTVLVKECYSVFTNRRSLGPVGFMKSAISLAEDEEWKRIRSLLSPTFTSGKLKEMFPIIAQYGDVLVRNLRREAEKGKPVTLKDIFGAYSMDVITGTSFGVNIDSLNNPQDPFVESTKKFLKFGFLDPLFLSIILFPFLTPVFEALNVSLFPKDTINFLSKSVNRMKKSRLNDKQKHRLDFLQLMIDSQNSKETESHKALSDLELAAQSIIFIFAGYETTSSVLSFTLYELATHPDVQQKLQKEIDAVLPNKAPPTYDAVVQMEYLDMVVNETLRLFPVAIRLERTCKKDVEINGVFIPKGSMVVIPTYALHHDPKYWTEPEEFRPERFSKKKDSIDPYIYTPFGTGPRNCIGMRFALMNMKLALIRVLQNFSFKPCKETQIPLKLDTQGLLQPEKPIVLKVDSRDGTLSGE
Nature of the series: Time-dependent inhibition (TDI) assay in CYP3A5 *1/*3 HLMs with CYP3cide. The class given is in vitro ADME. How it is done: as §1, with “incubation. The reaction was stopped with ice-cooled acetonitrile containing prednisolone (0.315 μM).” for “incubation.”
Kinetic parameters of the TDI (KI and kinact refer to the inhibitor concentration causing half-maximal inactivation and the maximal inactivation rate constant, respectively) were determined with Equation (3). kobs refers to the observed inactivation rate of the affected enzyme, determined by the negative slope of the linear regression. kinact is calculated with the negative reciprocal value of the straight line at the Y-intercept, while the interception on X-axis represents KI. [I] stands for the inhibitor concentration. A high ratio of kinact over KI indicates great inhibitory potency. (3) kobs=kinact×[I]/KI+[I]

On the set-up of series [8]: method as in PMID 24195812. The note with it: rats, oral administration of SZB; cited from earlier work.
Series [9] addresses T3, CYP3A5 (CYP3A5 *1/*3 HLMs + CYP3cide) (Homo sapiens, UniProt P20815).
T3 construct: For the CYP3A5 experiment, CYP3cide and CYP3A5 * 1/*3 HLMs were pre-warmed; tissue Transheep Co., Ltd. (Shanghai, China) lot: 0710232; host or cells: human liver microsomes, CYP3A5 *1/*3 genotype, treated with CYP3cide
Nature of the series: Reversible inhibition (RI) assay in genotyped HLMs with CYP3cide. The series is classed as in vitro ADME. The note with it: Dixon plot, tacrolimus substrate. The protocol: (§4) The reactions started upon the addition of NADPH and were terminated after 10 min by adding 200 μL of ice-cooled acetonitrile containing 0.1 μM of ascomycin (internal standard). […] The reaction was also terminated with ice-cooled acetonitrile. All experiments were carried out in triplicates.
(§5) Linear regression implemented in GraphPad Prism was plotted with the reciprocal value of metabolic reaction rate (1/v) against inhibitor concentration. The intersection of lines was used to calculate the Ki value.

On the set-up of series [10]: method as in PMID 32250458. The note with it: cited from earlier work.
In series [11] the target is T4, CYP3A4 (CYP3A5 *3/*3 HLMs) (Homo sapiens, UniProt P08684).
T4 construct: replacing pooled HLMs with CYP3A5 * 3/*3 HLMs; tissue Transheep Co., Ltd. (Shanghai, China) lot: 0710253; host or cells: human liver microsomes, CYP3A5 *3/*3 genotype
Put plainly: Reversible inhibition (RI) assay in genotyped HLMs. The series is classed as in vitro ADME. The note with it: Dixon plot, tacrolimus substrate. The protocol:
as §4, §5

Series [12] concerns CYP3A. Nature of the series: Reversible inhibition (RI) assay, tacrolimus metabolism in pooled HLMs. The class given is in vitro ADME, human. The settings on record: human, pooled human liver microsomes, pH 7.4, probe tacrolimus (0.25, 0.5, 1, 2 μM), Dixon plot, tacrolimus substrate. The protocol: as §3

By IC50 is commonly meant the concentration that gives 50% inhibition. As a reminder, the kinact/KI is the second-order rate constant of inactivation. The term kinact denotes the maximal first-order rate at which the target is inactivated. With `COc1cc2c(c(OC)c1OC)-c1c(cc(OC)c(OC)c1OC)C[C@](C)(O)[C@@H](C)C2` [SZA, Schizandrol A], the microsomal CLint in series [1] stood at 50 µL/min/mg. Besides, the IC50 shift at 30 min in series [2] (IC50 without NADPH preincubation / IC50 with NADPH preincubation) came to 1.57. In addition, in series [2], the IC50 at 30 min was found to be 40400 nM and the IC50 stood at 63500 nM. For the same compound, in series [3], the KI was found to be 15625 nM, the kinact/KI stood at 30.93 M⁻¹ s⁻¹ and the kinact was 0.000483 s⁻¹. Further, in [4], the KI was found to be 15380 nM, the second-order inactivation constant (kinact/KI) worked out at 26 M⁻¹ s⁻¹ and the kinact was 0.0004 s⁻¹. For the same compound, in [5], the “AUC, observed” value was 467.14 ng·h/mL; the “Cmax, observed” value is on record as 111.37 ng/mL; the “Tmax, observed” value is recorded as 1.81 h. Also, in [6], the “reversible inhibition on CYP3A (pattern)” value was “little reversible inhibition”.
A word on the Ki: it is a measure of affinity in units of concentration, obtained from inhibition or displacement. Consider `COc1cc2c(c(OC)c1OC)-c1c(cc3c(c1OC)OCO3)C[C@H](C)[C@@](C)(O)C2` [SZB, Schizandrol B], for which the microsomal CLint in series [1] amounted to 4.5 µL/min/mg. Moreover, in series [2], the IC50 at 30 min turned out to be 560 nM and the IC50 stood at 12000 nM. In series [3], the KI was 430 nM, the kinact/KI is 1705.5 M⁻¹ s⁻¹ and the kinact is 0.000733 s⁻¹. Further, in series [7] (CYP3A5, genotyped HLMs), the KI came to 500 nM and the inactivation efficiency (kinact/KI) stood at 300 M⁻¹ s⁻¹. Also, the kinact in [7] (human, CYP3A5 *1/*3 genotyped human liver microsomes with CYP3cide, probe testosterone (200 μM), 6β-hydroxytestosterone formation, with CYP3cide (concentration not stated for this test)) was 0.00015 s⁻¹. Moreover, in [4], the KI amounted to 690 nM, the kinact/KI was determined as 8937 M⁻¹ s⁻¹ and the kinact was 0.00617 s⁻¹. Besides, in [8], the “increase in systemic exposure of tacrolimus” value is 598.4%. For the same compound, the Ki in [9] was 2030 nM and 2180 nM. Moreover, the “increase in bosutinib exposure” value in [10] is 200%. The Ki in [11] was 2180 nM and 2030 nM. In series [5], the “AUC, observed” value was 242.97 ng·h/mL; the “Cmax, observed” value is on record as 65.18 ng/mL; the “Tmax, observed” value is 1.13 h. Also, the Ki at 10 min in series [12] worked out at 5820 nM. For the same compound, in [6], the “reversible inhibition on CYP3A (pattern)” value was “competitive and reversible inhibition pattern”.
